# Laboratory results published in PMC6978363, “Chaperone mediated detection of small molecule target binding in cells” (Nature Communications, 2020).
# Columns and labels:
# Assay in all cases: biochemical
# Details in all cases: read-out: % Inhibition (at 10mM)
# PLK1 = PLK1 (Homo sapiens, UniProt P53350)
# Aurora_A = target: T1, Aurora_A (Homo sapiens, UniProt O14965)
# T1 construct: gene AURKA
# PKG1_alpha = target: T2, PKG1_alpha (Homo sapiens, UniProt Q13976)
# T2 construct: gene PRKG1; isoform alpha
# PDGFR_beta = target: T3, PDGFR_beta (Homo sapiens, UniProt P09619)
# T3 construct: gene PDGFRB
# MRCK_alpha = target: T4, MRCK_alpha (Homo sapiens, UniProt Q5VT25)
# T4 construct: gene CDC42BPA
# Aurora_C = target: T5, Aurora_C (Homo sapiens, UniProt Q9UQB9)
# T5 construct: gene AURKC
# CK2_alpha1 = target: T6, CK2_alpha1 (Homo sapiens, UniProt P68400)
# T6 construct: gene CSNK2A1
# T6 sequence (P68400 whole entry): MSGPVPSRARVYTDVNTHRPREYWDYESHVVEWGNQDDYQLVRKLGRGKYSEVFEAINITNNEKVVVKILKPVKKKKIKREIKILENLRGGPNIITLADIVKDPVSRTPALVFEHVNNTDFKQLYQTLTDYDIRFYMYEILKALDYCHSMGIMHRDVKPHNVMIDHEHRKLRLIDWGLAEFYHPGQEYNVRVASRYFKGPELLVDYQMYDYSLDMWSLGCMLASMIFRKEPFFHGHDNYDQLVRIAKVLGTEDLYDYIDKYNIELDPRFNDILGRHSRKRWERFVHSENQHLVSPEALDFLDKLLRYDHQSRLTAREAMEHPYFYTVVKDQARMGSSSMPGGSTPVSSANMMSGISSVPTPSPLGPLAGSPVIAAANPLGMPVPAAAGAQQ
# HIPK4 = HIPK4 (Homo sapiens, UniProt Q8NE63)
# PKC_delta = target: T7, PKC_delta (Homo sapiens, UniProt Q05655)
# T7 construct: gene PRKCD
# ErbB2 = ErbB2 (Homo sapiens, UniProt P04626)
# PRAK = target: T8, PRAK (Homo sapiens, UniProt Q8IW41)
# T8 construct: gene MAPKAPK5
# Mer = target: T9, Mer (Homo sapiens, UniProt Q12866)
# T9 construct: gene MERTK
# DYRK1A = DYRK1A (Homo sapiens, UniProt Q13627)
# TYK2 = TYK2 (Homo sapiens, UniProt P29597)
# Src_N1 = target: T10, Src_N1 (Homo sapiens, UniProt P12931)
# T10 construct: gene SRC; isoform N1
# T10 sequence (P12931 whole entry, canonical isoform): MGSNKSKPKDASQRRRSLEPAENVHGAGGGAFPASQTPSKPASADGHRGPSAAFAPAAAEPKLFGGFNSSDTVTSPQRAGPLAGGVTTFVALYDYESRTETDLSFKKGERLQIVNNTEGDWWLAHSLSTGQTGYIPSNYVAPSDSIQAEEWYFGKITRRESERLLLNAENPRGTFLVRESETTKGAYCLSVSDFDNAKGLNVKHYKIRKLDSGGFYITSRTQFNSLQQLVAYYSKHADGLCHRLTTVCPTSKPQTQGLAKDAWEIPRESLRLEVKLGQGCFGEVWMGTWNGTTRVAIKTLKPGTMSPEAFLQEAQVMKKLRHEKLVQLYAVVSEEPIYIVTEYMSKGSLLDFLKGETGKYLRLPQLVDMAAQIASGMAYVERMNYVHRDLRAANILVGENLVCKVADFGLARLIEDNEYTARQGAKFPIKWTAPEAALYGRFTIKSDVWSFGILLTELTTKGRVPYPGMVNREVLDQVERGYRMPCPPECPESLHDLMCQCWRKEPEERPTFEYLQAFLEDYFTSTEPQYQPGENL
# PKC_beta2 = target: T11, PKC_beta2 (Homo sapiens, UniProt P05771)
# T11 construct: gene PRKCB; isoform beta 2
# T11 sequence (P05771 whole entry, canonical isoform): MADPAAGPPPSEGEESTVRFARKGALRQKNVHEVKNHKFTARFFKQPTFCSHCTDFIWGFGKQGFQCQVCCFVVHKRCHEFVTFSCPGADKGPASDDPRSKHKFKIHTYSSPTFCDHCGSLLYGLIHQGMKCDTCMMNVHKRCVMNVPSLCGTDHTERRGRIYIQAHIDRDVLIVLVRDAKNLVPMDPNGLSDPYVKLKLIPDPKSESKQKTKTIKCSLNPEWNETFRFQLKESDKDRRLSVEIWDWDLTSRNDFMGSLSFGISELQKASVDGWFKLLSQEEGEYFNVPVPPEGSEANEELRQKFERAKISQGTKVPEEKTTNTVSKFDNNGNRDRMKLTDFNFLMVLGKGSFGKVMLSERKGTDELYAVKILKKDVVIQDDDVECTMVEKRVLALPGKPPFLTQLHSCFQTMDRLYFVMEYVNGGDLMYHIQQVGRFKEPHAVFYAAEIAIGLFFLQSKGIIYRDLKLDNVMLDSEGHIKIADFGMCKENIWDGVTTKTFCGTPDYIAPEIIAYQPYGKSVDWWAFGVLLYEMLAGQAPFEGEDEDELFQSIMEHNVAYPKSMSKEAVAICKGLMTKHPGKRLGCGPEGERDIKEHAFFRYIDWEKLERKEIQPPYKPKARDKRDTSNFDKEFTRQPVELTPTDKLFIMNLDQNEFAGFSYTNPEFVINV
# MST4 = target: T12, MST4 (Homo sapiens, UniProt Q9P289)
# T12 construct: gene STK26
# Flt3 = Flt3 (Homo sapiens, UniProt P36888)
# CK1_gamma2 = target: T13, CK1_gamma2 (Homo sapiens, UniProt P78368)
# T13 construct: gene CSNK1G2
# Lyn = Lyn (Homo sapiens, UniProt P07948)
# CSF1R = CSF1R (Homo sapiens, UniProt P07333)
# HIPK1 = HIPK1 (Homo sapiens, UniProt Q86Z02)
# EphB4 = EphB4 (Homo sapiens, UniProt P54760)
# CDK1/cyclinB = CDK1/cyclinB (Homo sapiens, UniProt P06493)
# Chain of CDK1/cyclinB (P06493 whole entry): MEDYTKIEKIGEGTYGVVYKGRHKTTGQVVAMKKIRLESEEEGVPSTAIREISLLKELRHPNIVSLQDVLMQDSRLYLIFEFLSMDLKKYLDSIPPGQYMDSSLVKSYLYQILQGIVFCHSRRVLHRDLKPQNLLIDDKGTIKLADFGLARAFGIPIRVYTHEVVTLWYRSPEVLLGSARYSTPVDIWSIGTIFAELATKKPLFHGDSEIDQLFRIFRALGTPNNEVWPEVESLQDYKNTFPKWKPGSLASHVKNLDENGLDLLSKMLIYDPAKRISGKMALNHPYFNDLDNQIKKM
# Chain of CDK1/cyclinB (P14635 whole entry partner): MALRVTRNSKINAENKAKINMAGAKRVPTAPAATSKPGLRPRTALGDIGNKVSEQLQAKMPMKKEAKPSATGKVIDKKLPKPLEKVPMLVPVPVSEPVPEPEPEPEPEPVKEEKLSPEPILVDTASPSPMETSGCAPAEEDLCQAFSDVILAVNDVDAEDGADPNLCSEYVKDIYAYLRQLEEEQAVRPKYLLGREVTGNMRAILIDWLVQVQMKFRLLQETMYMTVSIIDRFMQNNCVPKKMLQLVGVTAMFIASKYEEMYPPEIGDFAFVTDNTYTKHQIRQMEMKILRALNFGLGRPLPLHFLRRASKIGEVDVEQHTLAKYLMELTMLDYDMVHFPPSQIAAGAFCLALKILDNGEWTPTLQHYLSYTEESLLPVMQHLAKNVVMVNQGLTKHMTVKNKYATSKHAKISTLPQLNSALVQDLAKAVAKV
# LynB = target: T14, LynB (Homo sapiens, UniProt P07948)
# T14 construct: gene LYN; isoform B
# TrkA = target: T15, TrkA (Homo sapiens, UniProt P04629)
# T15 construct: gene NTRK1
# TrkC = target: T16, TrkC (Homo sapiens, UniProt Q16288)
# T16 construct: gene NTRK3
# PRKAA2_B2_G3 = target: T17, PRKAA2_B2_G3 (Homo sapiens, UniProt P54646)
# T17 construct: gene PRKAA2
# T17 sequence (P54646 whole entry): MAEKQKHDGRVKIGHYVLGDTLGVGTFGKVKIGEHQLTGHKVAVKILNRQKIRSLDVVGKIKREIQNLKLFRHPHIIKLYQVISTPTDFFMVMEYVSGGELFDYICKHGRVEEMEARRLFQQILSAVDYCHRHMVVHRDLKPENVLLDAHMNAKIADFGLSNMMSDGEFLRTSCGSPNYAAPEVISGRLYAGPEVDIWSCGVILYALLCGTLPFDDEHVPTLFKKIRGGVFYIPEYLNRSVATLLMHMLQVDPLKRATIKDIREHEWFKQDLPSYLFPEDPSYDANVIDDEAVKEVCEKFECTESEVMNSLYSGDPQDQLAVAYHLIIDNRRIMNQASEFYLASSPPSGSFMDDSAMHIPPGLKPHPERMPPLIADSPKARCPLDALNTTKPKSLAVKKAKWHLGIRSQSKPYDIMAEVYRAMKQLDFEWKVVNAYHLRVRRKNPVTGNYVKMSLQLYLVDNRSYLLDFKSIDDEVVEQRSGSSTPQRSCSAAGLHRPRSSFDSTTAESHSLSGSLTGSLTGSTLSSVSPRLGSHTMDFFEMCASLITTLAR
# T17 sequence (O43741 whole entry partner): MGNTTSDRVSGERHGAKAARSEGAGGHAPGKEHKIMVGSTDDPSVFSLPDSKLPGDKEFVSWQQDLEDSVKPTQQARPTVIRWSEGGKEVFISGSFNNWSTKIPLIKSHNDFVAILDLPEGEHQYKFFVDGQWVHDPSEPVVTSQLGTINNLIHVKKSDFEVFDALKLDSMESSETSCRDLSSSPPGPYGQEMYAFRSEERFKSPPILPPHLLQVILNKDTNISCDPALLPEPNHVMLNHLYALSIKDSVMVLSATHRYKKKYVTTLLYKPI
# T17 sequence (Q9UGI9 whole entry partner): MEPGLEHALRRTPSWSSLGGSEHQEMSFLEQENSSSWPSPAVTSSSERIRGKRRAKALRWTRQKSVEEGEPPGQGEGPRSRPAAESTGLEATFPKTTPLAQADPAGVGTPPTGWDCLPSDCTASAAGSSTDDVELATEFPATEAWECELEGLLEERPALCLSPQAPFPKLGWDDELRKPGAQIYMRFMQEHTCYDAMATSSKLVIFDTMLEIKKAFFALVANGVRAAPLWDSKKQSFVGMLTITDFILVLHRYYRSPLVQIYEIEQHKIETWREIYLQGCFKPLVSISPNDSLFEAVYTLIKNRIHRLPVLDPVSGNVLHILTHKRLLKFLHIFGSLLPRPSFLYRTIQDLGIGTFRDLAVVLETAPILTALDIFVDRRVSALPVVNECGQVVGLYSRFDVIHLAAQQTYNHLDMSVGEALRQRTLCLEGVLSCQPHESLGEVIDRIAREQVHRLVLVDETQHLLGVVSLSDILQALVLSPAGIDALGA
# JAK1 = JAK1 (Homo sapiens, UniProt P23458)
# PDK1(direct) = target: T18, PDK1(direct) (Homo sapiens, UniProt O15530)
# T18 construct: gene PDPK1; direct
# T18 sequence (O15530 whole entry): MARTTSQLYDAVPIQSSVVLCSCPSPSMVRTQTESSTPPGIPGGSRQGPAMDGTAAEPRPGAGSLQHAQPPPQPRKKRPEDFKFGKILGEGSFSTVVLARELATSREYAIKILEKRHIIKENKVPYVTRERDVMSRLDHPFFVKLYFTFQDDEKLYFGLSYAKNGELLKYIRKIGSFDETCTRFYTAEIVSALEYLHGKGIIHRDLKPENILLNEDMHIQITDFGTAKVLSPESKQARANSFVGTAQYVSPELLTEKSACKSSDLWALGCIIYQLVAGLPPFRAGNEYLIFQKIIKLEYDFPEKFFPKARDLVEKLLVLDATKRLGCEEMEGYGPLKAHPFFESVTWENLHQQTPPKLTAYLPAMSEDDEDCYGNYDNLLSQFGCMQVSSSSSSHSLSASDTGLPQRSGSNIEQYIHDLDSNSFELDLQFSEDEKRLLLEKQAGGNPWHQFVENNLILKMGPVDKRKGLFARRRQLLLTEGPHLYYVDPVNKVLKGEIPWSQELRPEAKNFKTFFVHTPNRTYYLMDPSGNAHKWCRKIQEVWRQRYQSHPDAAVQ
# PhK_gamma1 = target: T19, PhK_gamma1 (Homo sapiens, UniProt Q16816)
# T19 construct: gene PHKG1
# NEK7 = NEK7 (Homo sapiens, UniProt Q8TDX7)
# FGFR1 = FGFR1 (Homo sapiens, UniProt P11362)
# IGF1R = IGF1R (Homo sapiens, UniProt P08069)
# ErbB4 = ErbB4 (Homo sapiens, UniProt Q15303)
# GSK3_beta = target: T20, GSK3_beta (Homo sapiens, UniProt P49841)
# T20 construct: gene GSK3B
# MELK = MELK (Homo sapiens, UniProt Q14680)
# Chain of MELK (Q14680 whole entry): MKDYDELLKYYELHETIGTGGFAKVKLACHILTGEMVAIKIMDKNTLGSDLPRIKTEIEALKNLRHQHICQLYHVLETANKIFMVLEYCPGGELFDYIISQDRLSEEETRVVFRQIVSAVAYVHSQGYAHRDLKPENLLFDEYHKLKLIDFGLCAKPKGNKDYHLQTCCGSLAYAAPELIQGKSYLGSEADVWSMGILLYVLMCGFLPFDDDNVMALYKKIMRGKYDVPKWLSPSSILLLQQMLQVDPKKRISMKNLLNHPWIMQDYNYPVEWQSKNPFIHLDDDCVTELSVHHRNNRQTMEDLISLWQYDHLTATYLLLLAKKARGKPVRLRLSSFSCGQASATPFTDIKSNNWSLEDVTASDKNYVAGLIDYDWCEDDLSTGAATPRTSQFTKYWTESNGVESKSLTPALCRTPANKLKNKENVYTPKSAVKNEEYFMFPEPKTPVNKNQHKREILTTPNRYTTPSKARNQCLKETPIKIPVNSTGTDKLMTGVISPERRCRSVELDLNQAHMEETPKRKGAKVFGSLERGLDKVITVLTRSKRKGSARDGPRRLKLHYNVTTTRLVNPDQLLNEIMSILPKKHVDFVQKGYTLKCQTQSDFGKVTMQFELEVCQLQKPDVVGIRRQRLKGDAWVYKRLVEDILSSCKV
structure (smiles),measurement,setting,value
CC(C)(O)CC(=O)NCCn1ccc2ncnc(Nc3ccc(Oc4cccc(C(F)(F)F)c4)c(Cl)c3)c21 [TAK-285],inhibition,PLK1,8%
same,inhibition,Aurora_A,17.5%
same,inhibition,PKG1_alpha,0%
same,inhibition,PDGFR_beta,-4%
same,inhibition,MRCK_alpha,-3.5%
same,inhibition,Aurora_C,22.5%
same,inhibition,CK2_alpha1,-2.5%
same,inhibition,HIPK4,5.5%
same,inhibition,PKC_delta,15.5%
same,inhibition,ErbB2,99%
same,inhibition,PRAK,3.5%
same,inhibition,Mer,49.5%
same,inhibition,DYRK1A,9.5%
same,inhibition,TYK2,4.5%
same,inhibition,Src_N1,23%
same,inhibition,PKC_beta2,9.5%
same,inhibition,MST4,-2.5%
same,inhibition,Flt3,27%
same,inhibition,CK1_gamma2,-5%
same,inhibition,Lyn,39.5%
same,inhibition,CSF1R,10.5%
same,inhibition,HIPK1,4.5%
same,inhibition,EphB4,8%
same,inhibition,CDK1/cyclinB,0.5%
same,inhibition,LynB,37%
same,inhibition,TrkA,29%
same,inhibition,TrkC,6%
same,inhibition,PRKAA2_B2_G3,9.5%
same,inhibition,JAK1,0%
same,inhibition,PDK1(direct),9%
same,inhibition,PhK_gamma1,7.5%
same,inhibition,NEK7,7%
same,inhibition,FGFR1,4%
same,inhibition,IGF1R,5%
same,inhibition,ErbB4,98.5%
same,inhibition,GSK3_beta,9%
same,inhibition,MELK,5.5%
